The results in this text go back to US20030088888A1, “Method of plant transformation” (priority 2001, published 2003).

The subject of this test is gypsophila stem explants. Description: Transient transformation (GUS expression) of stem explants from GA3-pretreated plants after cocultivation with Agrobacterium tumefaciens EHA105/pKIWI105. The test is classed as in vivo, Gypsophila paniculata L. On the procedure: Unrooted cuttings of gypsophila (Gypsophila paniculata L.) cultivars Arbel, Pestival, Flamingo, Yokinko, New Hope and P2000 were obtained from Danziger “DAN” Flower Farm (Moshav Mishmar Hashiva, Israel). Stem cuttings with six or eight filly mature leaves (not counting the apical leaves which were not fully expanded), harvested from greenhouse-grown plants and stored for up to 2 weeks at 4° C., were used to prepare stem explants (Zuker A, Ahroni A, Shejtman H and Vainstein A (1997). Adventitious shoot regeneration from leaf explants of Gypsophila paniculata L. Plant Cell Reports, 16: 775-778; Ahroni A, Zuker A, Rozen Y, Shejtman H and Vainstein A (1997). An efficient method for adventitious shoot regeneration from stem-segment explants of gwpsophila. Plant Cell Tiss Org Cult 49: 101-106). Twenty days prior to harvesting of cuttings (unless otherwise i5 indicated), mother plants were sprayed once with approximately 4 ml. of 1 mM GA3.
Cuttings were rinsed with 70% ethanol, then sterilized for 10 min in 1.5% (w/v) sodium hypochlorite and rinsed three times for 10 min each in sterile water. The leaves and shoot apices of the cutting were discarded and the three primary nodes were immersed for 10 min in a bacterial (A. tumefaciens EHA105/pKIWI105) suspension (OD550=1). Inoculated stem explants were then blotted dry and cultured in an upright position on the cocultivation medium for a period of up to 5 days. Following cocultivation, stem explants were histochemically evaluated for transient GUS expression by counting the number of GUS-expressing stem explants, as well as the number of blue spots per explant under a stereo-microscope.
A histochemical assay of GUS activity was performed according to Stomp (1992). Tissue samples were incubated for a few hours to overnight at 37° C. in a 0.1% (w/v) X-Gluc (5-bromo-4-chloro-3-indolyl β-D-glucuronic acid sodium salt, Biosynth Inc., Staad, Switzerland) solution containing 0.1 M sodium phosphate buffer (pH 7.0), 10 mM EDTA, and 0.1% (w/v) Triton X-100. When necessary, green tissues were bleached, after staining, by immersion in 50% (v/v) EtOH for a few hours, followed by several washes with 70% EtOH. It should be noted that no background GUS activity was detectable in any of the analyzed tissues of control plants.

`C=C1C[C@]23C[C@@]1(O)CC[C@H]2[C@@]12C=C[C@H](O)[C@@](C)(C(=O)O1)[C@H]2[C@@H]3C(=O)O` [GA3]: for the setting “cv. Arbel, explants from 20 day versus 10 day GA3 treated plants”, the “increase in frequency of transient transformation events (number of blue spots per explant)” value was “ca. 3 times”. Also, where the note is “cv. Arbel, explants from plants 20 days after GA3 treatment (1 mM spray), 5-day cocultivation with EHA105/pKIWI105”, the “percentage of GUS-expressing stem explants out of total number of explants inoculated” value turned out to be 90%. Moreover, the “percentage of inoculated explants expressing GUS” value (cvs. Pestival and Flamingo, GA3-treated plants, cocultivation with EHA105/pKIWI105, dark then light, 5 days) is “ca. 75%”. For the setting “explants from cuttings of plants treated with GA3, versus no transient transformation without GA3”, the “transient transformation (qualitative)” value is “efficient and highly reproducible transient transformation was obtained”.
